Data published in patent US20250163051A1, “PYRIMIDO AROMATIC RING COMPOUND AND USE THEREOF IN DRUG” (SUNSHINE LAKE PHARMA CO., LTD., priority 2022, published 2025).

How the values were obtained:
[1] = Cell toxicity (Celltiter-Glo) in HEK-Blue hTLR8 cells; settings: human
Experimental: (§1) Purpose: HEK-Blue™ hTLR7 and HEK-Blue™ hTLR8 cells were used to detect the agonist and cytotoxic activities of compounds against hTLR7 and hTLR8.
(§2) The experimental steps were as shown below: • 1) Preparation of compound: The compound was prepared into a 20 mM stock solution with DMSO, and then the stock solution was diluted 3-fold in a gradient and added to a 96-well plate, for a total of 10 concentrations, with duplicate wells for each concentration. For negative control wells, 0.5 μL DMSO was added to each well. The final DMSO concentration was 0.5%. • 2) HEK-Blue™ hTLR7 or HEK-Blue™ hTLR8 cells were suspended in culture medium and then seeded into 96-well plates containing compounds at a cell count of 50,000 per well. The compounds and cells were incubated for 24 h at 37° C., 5% Co2. • 3) QUANTI-Blue was used for the detection solution: to a mixture of 1 mL of QB reagent and 1 mL of QB buffer was added 98 mL of sterile water, the mixture was mixed and dissolved, and then placed at room temperature for 10 min. • 4) Activity test of the compound: 20 μL of the culture supernatant in step 2) was added to each well of a 96-well plate containing 180 μL of QUANTI-Blue detection solution. After incubation at 37° C. for 1 h, the absorbance at 650 nm (OD650) was detected using a multifunctional microplate reader Flextation III. • 5) Detection of cell activity: The chemiluminescent signal (RLU) was detected using the multifunctional microplate reader Flextation III according to the instructions of Celltiter-Glo. • 6) Data analysis
Detection of cell activity: The calculation formula for cell activity % is as follows.
The cell activity % values were analyzed using GraphPad Prism software, and the compound dose-effect curves were fitted to calculate the CC50 values of the compounds.
Cell activity %=RLU compound/RLU DMSO Control*100%

hTLR7 = target: T1, hTLR7 (Homo sapiens, UniProt Q9NYK1); assay: Agonistic activity on human TLR7 in HEK-Blue hTLR7 cells (QUANTI-Blue); format: cell-based; settings: 24 h incubation, OD650, read-out: hTLR 7 EC50
T1 construct: expressed in transfected cells; host or cells: HEK-Blue hTLR7 cells
T1 sequence (Q9NYK1 27-1049): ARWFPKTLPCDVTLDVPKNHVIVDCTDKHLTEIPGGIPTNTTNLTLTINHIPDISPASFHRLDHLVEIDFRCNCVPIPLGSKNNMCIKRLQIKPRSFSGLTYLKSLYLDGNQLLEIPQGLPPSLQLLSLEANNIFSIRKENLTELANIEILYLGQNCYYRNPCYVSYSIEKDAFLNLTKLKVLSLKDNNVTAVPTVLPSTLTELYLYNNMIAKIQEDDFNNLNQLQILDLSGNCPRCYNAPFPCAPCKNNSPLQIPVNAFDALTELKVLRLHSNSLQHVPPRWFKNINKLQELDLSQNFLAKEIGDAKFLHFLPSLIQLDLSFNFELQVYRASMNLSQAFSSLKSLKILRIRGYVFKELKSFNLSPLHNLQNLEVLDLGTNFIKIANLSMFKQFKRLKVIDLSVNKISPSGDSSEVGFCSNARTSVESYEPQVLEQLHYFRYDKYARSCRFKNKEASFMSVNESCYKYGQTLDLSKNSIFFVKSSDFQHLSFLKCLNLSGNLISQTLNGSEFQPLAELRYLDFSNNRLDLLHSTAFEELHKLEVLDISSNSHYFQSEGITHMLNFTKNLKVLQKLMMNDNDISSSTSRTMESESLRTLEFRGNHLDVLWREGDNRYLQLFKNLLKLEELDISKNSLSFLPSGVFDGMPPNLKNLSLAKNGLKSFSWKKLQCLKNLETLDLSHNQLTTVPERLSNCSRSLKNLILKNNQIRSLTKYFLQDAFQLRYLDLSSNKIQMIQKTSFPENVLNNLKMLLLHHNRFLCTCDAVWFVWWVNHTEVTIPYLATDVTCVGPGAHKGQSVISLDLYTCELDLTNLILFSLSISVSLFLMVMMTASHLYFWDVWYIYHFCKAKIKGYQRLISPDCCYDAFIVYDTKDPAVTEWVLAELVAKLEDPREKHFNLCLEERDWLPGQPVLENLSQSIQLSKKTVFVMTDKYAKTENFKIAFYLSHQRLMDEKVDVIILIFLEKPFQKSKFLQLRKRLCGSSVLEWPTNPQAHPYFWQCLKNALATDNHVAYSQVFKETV

hTLR8 = target: T2, hTLR8 (Homo sapiens, UniProt Q9NR97); assay: Agonistic activity on human TLR8 in HEK-Blue hTLR8 cells (QUANTI-Blue); format: cell-based; settings: 24 h incubation, OD650, read-out: hTLR 8 EC50
T2 construct: expressed in transfected cells; host or cells: HEK-Blue hTLR8 cells
T2 sequence (Q9NR97 27-1041): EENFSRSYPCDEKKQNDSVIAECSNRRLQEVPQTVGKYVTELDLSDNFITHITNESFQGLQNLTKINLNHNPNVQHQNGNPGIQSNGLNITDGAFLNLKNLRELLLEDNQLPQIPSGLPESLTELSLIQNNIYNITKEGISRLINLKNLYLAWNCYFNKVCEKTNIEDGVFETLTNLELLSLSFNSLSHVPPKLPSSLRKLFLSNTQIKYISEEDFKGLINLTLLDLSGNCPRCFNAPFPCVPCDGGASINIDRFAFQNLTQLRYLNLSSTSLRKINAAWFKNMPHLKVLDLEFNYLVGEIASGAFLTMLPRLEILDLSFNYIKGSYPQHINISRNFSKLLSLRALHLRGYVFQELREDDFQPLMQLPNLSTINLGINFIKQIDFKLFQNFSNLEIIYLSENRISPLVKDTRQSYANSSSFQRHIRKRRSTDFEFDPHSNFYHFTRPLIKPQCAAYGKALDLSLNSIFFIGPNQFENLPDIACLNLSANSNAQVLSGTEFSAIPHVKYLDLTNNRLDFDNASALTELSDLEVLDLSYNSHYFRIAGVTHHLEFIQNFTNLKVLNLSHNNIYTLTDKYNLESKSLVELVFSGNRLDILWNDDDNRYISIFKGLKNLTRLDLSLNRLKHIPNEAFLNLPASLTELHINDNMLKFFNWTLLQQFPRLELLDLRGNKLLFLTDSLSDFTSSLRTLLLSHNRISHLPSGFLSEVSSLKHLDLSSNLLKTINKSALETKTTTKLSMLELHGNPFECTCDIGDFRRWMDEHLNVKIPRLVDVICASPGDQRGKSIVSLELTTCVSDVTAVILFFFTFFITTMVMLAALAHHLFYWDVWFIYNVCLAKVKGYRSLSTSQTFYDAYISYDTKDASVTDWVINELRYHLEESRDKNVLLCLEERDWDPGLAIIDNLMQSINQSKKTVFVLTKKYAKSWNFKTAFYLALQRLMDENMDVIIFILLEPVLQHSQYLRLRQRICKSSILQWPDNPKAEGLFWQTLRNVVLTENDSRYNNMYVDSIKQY
Experimental: as §1, §2
Activity of compounds: OD650 values were analyzed using GraphPad Prism software, and the compound dose-effect curves were fitted to calculate the EC50 values of the compounds.

SMILES	EC50 (hTLR7)	EC50 (hTLR8)	CC50 at 24 h [1]
C=CCCN(CCC=C)Cc1c[nH]c(=O)cc1-c1cnc2c(N[C@@](C)(CO)CCCC)nc(N)nc2c1 [Example 13]	81.5 µM	1.73 µM	97.3 µM
C=CCCN(C)C(=O)c1c[nH]c(=O)cc1-c1cnc2c(N[C@@](C)(CO)CCCC)nc(N)nc2c1 [Example 38, (R)-4-(2-Amino-4-((1-hydroxy-2-methylhexan-2-yl)amino)pyrido[3,2-d]pyrimidin-7-yl)-N-(but-3-en-1-yl)-N-methyl-6-oxo-1,6-dihydropyridine-3-carboxamide]	> 100 µM	2.99 µM	> 100 µM
CCCC[C@](C)(CO)Nc1nc(N)nc2cc(-c3cc(=O)[nH]cc3CN3CCC(F)(F)CC3)cnc12 [Example 26]	54.6 µM	0.845 µM	
CCCC[C@](C)(CO)Nc1nc(N)nc2cc(-c3cc(=O)n(C)cc3CN(C)CCc3ccccc3)cnc12 [Example 1, (R)-4-(2-Amino-4-((1-hydroxy-2-methylhexan-2-yl)amino)pyrido[3,2-d]pyrimidin-7-yl)-1-methyl-5-((methyl(phenethyl)amino)methyl)pyridin-2(1H)-one]	73 µM	1.82 µM	
CCCC[C@](C)(CO)Nc1nc(N)nc2cc(-c3cc(=O)[nH]cc3CN(C)CCc3ccccc3)cnc12 [Example 11]		1.65 µM	
CCCCN(CCCC)Cc1cn(C)c(=O)cc1-c1cnc2c(N[C@@](C)(CO)CCCC)nc(N)nc2c1 [Example 4]	> 100 µM	1.07 µM	
C#CCCN(C)Cc1cn(C)c(=O)cc1-c1cnc2c(N[C@@](C)(CO)CCCC)nc(N)nc2c1 [Example 6]	> 100 µM	3.9 µM	
CCCC[C@H](CO)Nc1nc(N)nc2cc(-c3cc(=O)[nH]cc3CN(C)CCCC)cnc12 [Example 43, (R)-4-(2-Amino-4-((1-hydroxyhexan-2-yl)amino)pyrido[3,2-d]pyrimidin-7-yl)-5-((butyl(methyl)amino)methyl)pyridin-2(1H)-one]			> 100 µM
CCCCN(C)Cc1c[nH]c(=O)cc1-c1cnc2c(N[C@](C)(CCCC)COC)nc(N)nc2c1 [Example 53, (R)-4-(2-Amino-4-((1-methoxy-2-methylhexan-2-yl)amino)pyrido[3,2-d]pyrimidin-7-yl)-5-((butyl(methyl)amino)methyl)pyridin-2(1H)-one]		0.68 µM	
CCCC[C@](C)(CO)Nc1nc(N)nc2cc(-c3cc(=O)[nH]cc3CN3CCNCC3)cnc12 [Example 15]			> 100 µM
C=CCCN(CCC=C)Cc1cn(C)c(=O)cc1-c1cnc2c(N[C@@](C)(CO)CCCC)nc(N)nc2c1 [Example 3]	> 100 µM	1.46 µM	

Now from value to molecule, other results behind:

EC50 (hTLR7)	EC50 (hTLR8)	SMILES	CC50 at 24 h [1]
> 100 µM	0.418 µM	CCCC[C@](C)(CO)Nc1nc(N)nc2cc(-c3cc(=O)n(C)cc3CNCCOC)ccc12 [Example 61, (R)-4-(2-Amino-4-((1-hydroxy-2-methylhexan-2-yl)amino)quinazolin-7-yl)-5-(((2-methoxyethyl)amino)methyl)-1-methylpyridin-2(1H)-one]	> 100 µM
> 100 µM	0.255 µM	C=CCCN(Cc1c[nH]c(=O)cc1-c1cnc2c(N[C@@](C)(CO)CCCC)nc(N)nc2c1)C(C)C [Example 19]	> 100 µM
29.9 µM	0.354 µM	C=CCCOCc1c[nH]c(=O)cc1-c1cnc2c(N[C@@](C)(CO)CCCC)nc(N)nc2c1 [Example 41, (R)-4-(2-Amino-4-((1-hydroxy-2-methylhexan-2-yl)amino)pyrido[3,2-d]pyrimidin-7-yl)-5-((but-3-en-1-yloxy)methyl)pyridin-2(1H)-one]	> 100 µM
23.2 µM	0.267 µM	CCCC[C@](C)(CO)Nc1nc(N)nc2cc(-c3cc(=O)[nH]cc3CN(C)CCc3ccccc3)ccc12 [Example 29, (R)-4-(2-Amino-4-((1-hydroxy-2-methylhexan-2-yl)amino)quinazolin-7-yl)-5-((methyl(phenethyl)amino)methyl)pyridin-2(1H)-one]	
12 µM	0.023 µM	CCCCN(C)Cc1c[nH]c(=O)cc1-c1cnc2c(N[C@@](C)(CO)CCCC)nc(N)nc2c1 [Example 69, 4-(2-Amino-4-((1-hydroxy-2-methylhexan-2-yl)amino)pyrido[3,2-d]pyrimidin-7-yl)-5-((butyl(methyl)amino)methyl)pyridin-2(1H)-one]	
> 100 µM	0.291 µM	CCCC[C@](C)(CO)Nc1nc(N)nc2cc(-c3cc(=O)[nH]cc3CN3CCN(C(C)(C)C)CC3)cnc12 [Example 23]	> 100 µM
> 100 µM	0.595 µM	C=CCCN(C)Cc1c[nH]c(=O)cc1-c1cnc2c(N[C@@H](CO)CCCC)nc(N)nc2c1 [Example 42, (R)-4-(2-Amino-4-((1-hydroxyhexan-2-yl)amino)pyrido[3,2-d]pyrimidin-7-yl)-5-((but-3-en-1-yl (methyl)amino)methyl)pyridin-2(1H)-one]	> 100 µM
> 100 µM	0.22 µM	CCCC[C@](C)(CO)Nc1nc(N)nc2cc(-c3cc(=O)[nH]cc3CN3CCCCC3)ccc12 [Example 17]	> 100 µM
65.8 µM	0.104 µM	CCCC[C@](C)(CO)Nc1nc(N)nc2cc(-c3cc(=O)[nH]cc3CN3CCCCC3)cnc12 [Example 16]	
> 100 µM	0.198 µM	CCCCNCc1cn(C)c(=O)cc1-c1ccc2c(N[C@@](C)(CO)CCCC)nc(N)nc2c1 [Example 62, (R)-4-(2-Amino-4-((1-hydroxy-2-methylhexan-2-yl)amino)quinazolin-7-yl)-5-((butylamino)methyl)-1-methylpyridin-2(1H)-one]	> 100 µM
> 100 µM	0.288 µM	CCCCN(CCCC)Cc1c[nH]c(=O)cc1-c1cnc2c(N[C@@](C)(CO)CCCC)nc(N)nc2c1 [Example 14]	> 100 µM
50.8 µM	0.019 µM	CCCC[C@](C)(CO)Nc1nc(N)nc2cc(-c3cc(=O)[nH]cc3CN(C)CCC3CC3)cnc12 [Example 12]	
> 100 µM	0.1 µM	CCCC[C@](C)(CO)Nc1nc(N)nc2cc(-c3cc(=O)n(C)cc3CN(C)CCC3CC3)cnc12 [Example 2]	
47.2 µM	0.399 µM	CCCCN(CCCC)Cc1c[nH]c(=O)cc1-c1ccc2c(N[C@@](C)(CO)CCCC)nc(N)nc2c1 [Example 32]	
56.7 µM	0.209 µM	C=CCCN(CCC=C)Cc1c[nH]c(=O)cc1-c1ccc2c(N[C@@](C)(CO)CCCC)nc(N)nc2c1 [Example 31]	
> 100 µM	0.397 µM	C=CCCN(C)Cc1cn(C2CCN(C)CC2)c(=O)cc1-c1cnc2c(N[C@@](C)(CO)CCCC)nc(N)nc2c1 [Example 37, (R)-4-(2-Amino-4-((1-hydroxy-2-methylhexan-2-yl)amino)pyrido[3,2-d]pyrimidin-7-yl)-5-((but-3-en-1-yl(methyl)amino)methyl)-1-(1-methylpiperidin-4-yl)pyridin-2(1H)-one]	
